Experiments:
[1] = biological target: AbCphZ E251A (Acinetobacter baylyi DSM587); experiment: ITC
[2] = biological target: T1, AbCphZ (Acinetobacter baylyi, UniProt Q6FCQ4, E251A); experiment: isothermal titration calorimetry; format: binding
T1 sequence (Q6FCQ4 1-383 E251A): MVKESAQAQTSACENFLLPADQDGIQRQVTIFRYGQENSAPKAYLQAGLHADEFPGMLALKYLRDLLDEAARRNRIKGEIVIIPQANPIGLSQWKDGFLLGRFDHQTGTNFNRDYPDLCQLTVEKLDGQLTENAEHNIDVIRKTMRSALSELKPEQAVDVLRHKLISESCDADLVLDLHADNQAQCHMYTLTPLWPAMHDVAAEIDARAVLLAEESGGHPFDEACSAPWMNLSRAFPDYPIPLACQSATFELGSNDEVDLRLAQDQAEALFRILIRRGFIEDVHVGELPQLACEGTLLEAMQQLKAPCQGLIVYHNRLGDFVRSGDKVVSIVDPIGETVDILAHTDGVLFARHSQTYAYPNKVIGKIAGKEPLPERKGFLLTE

[3] = biological target: T2, PaAotO (Pseudomonas aeruginosa, UniProt O50184); experiment: Arg release coupled assay; format: biochemical; settings: 1 mM substrate, 500 nM enzyme
T2 sequence (O50184 1-370): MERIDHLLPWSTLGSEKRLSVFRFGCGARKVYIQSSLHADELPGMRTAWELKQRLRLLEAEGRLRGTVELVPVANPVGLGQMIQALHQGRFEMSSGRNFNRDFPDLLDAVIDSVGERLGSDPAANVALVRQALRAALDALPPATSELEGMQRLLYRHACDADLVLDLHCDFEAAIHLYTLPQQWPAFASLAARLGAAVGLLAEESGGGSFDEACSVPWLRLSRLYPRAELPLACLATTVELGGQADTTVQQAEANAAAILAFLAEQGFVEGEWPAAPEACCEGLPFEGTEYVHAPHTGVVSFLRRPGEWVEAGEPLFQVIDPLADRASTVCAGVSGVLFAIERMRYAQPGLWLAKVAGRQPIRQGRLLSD

[4] = biological target: Acinetobacter baylyi cyanophycin dipeptide hydrolase CphZ (Acinetobacter baylyi DSM587); experiment: SEC

Question: β-Asp-Arg dipeptide was tested. Which Kd [1] did it give?
Answer: 7.6 µM

Question: How did the Kd [2] turn out when `N=C(N)NCCC[C@H](NC(=O)C[C@H](N)C(=O)O)C(=O)O` [β-Asp-Arg] was run?
Answer: 7.6 ± 0.1 µM

Question: And the “Arg release coupled assay (340 nm)” value [3]?
Answer: AotO is specific for β-Asp-Arg and hydrolyzes it at a rate comparable to AbCphZ

Question: `N=C(N)NCCC[C@H](N)C(=O)O` [Arg] was tested. Which Kd [2] did it give?
Answer: 471 ± 16.8 µM

Question: “Acinetobacter baylyi cyanophycin dipeptide hydrolase CphZ (enzyme)” was tested. Which stoichiometry N [4] did it give?
Answer: 2
